The text below walks through data of patent US4442106A, “Quinoline derivatives, pharmaceutical compositions containing such compounds, and methods of treating cardiovascular conditions with them” (ACF Chemiefarma N.V., priority 1980, dated 1984).

Molecules are shown by their SMILES. Like-named read-outs stand apart in the source and are kept apart here.

In assay [1] the test system is right ventricle of the heart. In words: Guinea Pigs Electrostimulation Test (arrhythmias by electrostimulation of the right ventricle of the heart). The assay is classed as in vivo. The settings on record: Cavia porcellus, 0.5 h, 30 minutes before stimulation, read-out: Percent increase in voltage required for arrhythmia; for change in vivo at 32 mg/kg: standard dose 32 mg/kg intraduodenal. On the procedure: Experiment 2-Effectiveness of the compounds of Examples in the Guinea Pigs Electrostimulation Test
Arrhythmias are induced in guinea pigs by electrostimulation of the right ventricle of the heart. The animals are anaesthesized with urethane (1.2 g/kg i.p.) and artificially respirated before a needle electrode is inserted in the right ventricle of the heart. Substances are given intraduodinally 30 minutes before the stimulation at a standard dose of 32 mg/kg. In some cases a different dose was used as indicated.
The voltage needed for induction of extra systoles in control animals (n=6) is compared with that required for induction of arrhythmias in treated animals (n=6).
This method is based on the work of L. Szekeres and G. J. Papp, Naunyn-Schmiedebergs Arch. Exp. Path. Pharmak., 245, 70 (1963).
In the table the results of certain compounds of the invention are mentioned, which have been carried out according to the method described above.
The numbers of the compounds correspond with those of the Examples.

For assay [2], the system named is spontaneously hypertensive rats. The experiment in a line: Effectiveness in spontaneously hypertensive rats: systolic blood pressure by tail cuff method. The settings on record: Rattus norvegicus, read-out: Change of systolic blood-pressures. The assay is classed as in vivo. As for the experimental part: Experiment 1-Effectiveness of the compounds of Examples in spontaneously hypertensive rats
Systolic blood pressures were recorded by a modification of the tail cuff method described by I.M. Claxton et al., Eur. J.Pharmacology 37, 179 (1976). An oscilloscope or W+W BP recorder, model 8002, was used to display pulses.
Prior to all measurements rats were placed in a heated environment (33.5±0.5° C.) before transfer to a restraining cage. Each determination of blood pressure was the mean of at least 6 readings.
Spontaneously hypertensive rats (aged 12-18 weeks) with systolic blood pressures >170 mm Hg were considered hypertensive.
In the following table the results with certain compounds of the invention, which have been carried out with the above-described method, are mentioned. The numbers of the compounds correspond with those of the Examples.

As for `CC[C@H]1CN(CCCC(=O)c2ccccc2)CC[C@H]1CCC(=O)c1cc(C)nc2ccccc12` [Compound 25, N-(3-benzoylpropyl)-2'-methyl-hydrocinchonicine.bifumarate], in assay [1], the change in vivo at 32 mg/kg worked out at 5%. Moreover, the change in vivo at 100 mg/kg is -16% in assay [2] (1 h); -25% in assay [2] (2 h); -9% in assay [2] (4 h); -5% in assay [2] (6 h); 2% in assay [2] (24 h).
For `CCCCCN1CC[C@@H](CCC(=O)c2cc(C)nc3ccccc23)[C@@H](CC)C1` [Compound 27], the change in vivo at 32 mg/kg in assay [1] is -2%. The change in vivo at 100 mg/kg in assay [2] (1 h) was -1%; in assay [2] (2 h) it was -13%; in assay [2] (4 h) it was -28%; in assay [2] (6 h), -16%; in assay [2] (24 h), -3%.
As for `C=C[C@H]1CN(CCCC(=O)c2ccc(F)cc2)CC[C@H]1CCC(=O)c1cc(C)nc2ccccc12` [Compound 28], the change in vivo at 10 mg/kg is -5% in assay [2] (1 h); -2% in assay [2] (2 h); -10% in assay [2] (4 h); -11% in assay [2] (6 h); 5% in assay [2] (24 h).
Turning to `CCCN1CC[C@@H](CCC(=O)c2cc(C)nc3ccc(OC)cc23)[C@@H](CC)C1` [Compound 29], the change in vivo at 16 mg/kg in assay [1] (intraduodenal) turned out to be 9%. Moreover, the change in vivo at 100 mg/kg was -10% in assay [2] (1 h); -27% in assay [2] (2 h); -18% in assay [2] (4 h); -22% in assay [2] (6 h); 0% in assay [2] (24 h).
Regarding `CCCc1cc(C(=O)CC[C@@H]2CCN(CCC)C[C@@H]2CC)c2ccccc2n1` [Compound 30, N-propyl-2'-propyl-hydrocinchonicine], the change in vivo at 8 mg/kg in assay [1] (intraduodenal) turned out to be 60%.
Take `CCCCCN1CC[C@@H](CCC(=O)c2cc(CCC)nc3ccccc23)[C@@H](CC)C1` [Compound 31, N-pentyl-2'-propyl-hydrocinchonicine]: the change in vivo at 32 mg/kg in assay [1] came to 31%.
Turning to `CCCc1cc(C(=O)CC[C@@H]2CCN(CCCC(=O)c3ccccc3)C[C@@H]2CC)c2ccccc2n1` [Compound 32, N-(3-benzoylpropyl)-2'-propyl-hydrocinchonicine], in assay [1], the change in vivo at 32 mg/kg turned out to be 52%. Moreover, the change in vivo at 10 mg/kg is -4% in assay [2] (1 h); -11% in assay [2] (2 h); -8% in assay [2] (4 h); -22% in assay [2] (6 h); -3% in assay [2] (24 h).
For `CC[C@H]1CN(CC(C)(C)O)CC[C@H]1CCC(=O)c1cc(C(C)C)nc2ccccc12` [Compound 36, N-(2-hydroxy-2-methylpropyl)-2'-isopropylhydrocinchonicine.bioxalate], the change in vivo at 32 mg/kg in assay [1] amounted to 91%.
`CCCN1CC[C@@H](CCC(O)c2cc(C)nc3ccc(OC)cc23)[C@@H](CC)C1` (stereo partly shown) [Compound 40, N-propyl-2'-methyl-hydroquinicinol-1]: the change in vivo at 16 mg/kg in assay [1] (intraduodenal) was determined as 44%.
`CCCc1cc(C(O)CC[C@@H]2CCN(CCC)C[C@@H]2CC)c2cc(OC)ccc2n1` (stereo partly shown) [Compound 42, N-propyl-2'-propyl-hydroquinicinol-1]: in assay [1] (intraduodenal), the change in vivo at 16 mg/kg was determined as 74%.
Regarding `CCCCCN1CC[C@@H](CCCc2cc(C)nc3ccccc23)[C@@H](CC)C1` [Compound 44, N-pentyl-2'-methyl-desoxo-hydrocinchonicine], the change in vivo at 100 mg/kg in assay [2] (1 h) is 2%; in assay [2] (2 h), -15%; in assay [2] (4 h), -30%; in assay [2] (6 h) it was -43%; in assay [2] (24 h), -6%.
As for `CC[C@H]1CN(CCCC(=O)c2ccccc2)CC[C@H]1CCCc1cc(C)nc2ccccc12` [Compound 45, N-(3-benzoylpropyl)-2'-methyl-desoxo-hydrocinchonicine], the change in vivo at 10 mg/kg is -14% in assay [2] (1 h); -6% in assay [2] (2 h); -14% in assay [2] (4 h); -21% in assay [2] (6 h); -2% in assay [2] (24 h).
For the molecule `CC[C@H]1CN(CCCC(=O)c2ccc(F)cc2)CC[C@H]1CCCc1cc(C)nc2ccccc12` [Compound 46, N-[3-(4-fluorobenzoyl)propyl]-2'-methyl-desoxo-hydrocinchonicine], the change in vivo at 10 mg/kg in assay [2] (1 h) is -22%; in assay [2] (2 h), -24%; in assay [2] (4 h) it was -20%; in assay [2] (6 h), -20%; in assay [2] (24 h), -1%.
As to `CC[C@H]1CN(CCCC(=O)c2ccc(F)cc2)CC[C@H]1CCCc1cc(C)nc2ccc(OCCC(C)C)cc12` [Compound 47, N-[3-(4-fluorobenzoyl)propyl]-2'methyl-6'-isopentoxy-oxy-desoxo-hydrocinchonicine], the change in vivo at 10 mg/kg was -26% in assay [2] (1 h); -21% in assay [2] (2 h); -30% in assay [2] (4 h); -22% in assay [2] (6 h); 0% in assay [2] (24 h).
Consider `CCCN1CC[C@@H](CCCc2cc(O)nc3ccccc23)[C@@H](CC)C1` [Compound 48], for which the change in vivo at 16 mg/kg in assay [1] (intraduodenal) is 19%.
Take `CCCN1CC[C@@H](CCCc2cc(O)nc3ccc(OC)cc23)[C@@H](CC)C1` [Compound 49]: the change in vivo at 16 mg/kg in assay [1] (intraduodenal) came to 21%.
On to `CC[C@H]1CN(CCCC(=O)c2ccc(F)cc2)CC[C@H]1CCCc1cc(C(F)(F)F)nc2ccccc12` [Compound 50], for which the change in vivo at 10 mg/kg in assay [2] (1 h) is -4%; in assay [2] (2 h), -16%; in assay [2] (4 h), -16%; in assay [2] (6 h), -13%.
With `CC[C@H]1CN(C)CC[C@H]1CCC(=O)c1cc(OC)nc2ccccc12` [Compound 52, 2'-Methoxy-N-methyl-hydrocinchonicine.bioxalate], the change in vivo at 8 mg/kg in assay [1] (intraduodenal) worked out at 25%.
For the molecule `CC[C@H]1CN(CCCC(c2ccc(F)cc2)c2ccc(F)cc2)CC[C@H]1CC(O)Cc1cc(OC)nc2ccccc12` (stereo partly shown) [Compound 55], the change in vivo at 10 mg/kg in assay [2] (1 h) is -11%; in assay [2] (2 h), -5%; in assay [2] (4 h) it was -7%; in assay [2] (6 h), -10%; in assay [2] (24 h), -2%.
`CCCN1CC[C@@H](CC(O)Cc2cc(OC)nc3ccc(OC)cc23)[C@@H](CC)C1` (stereo partly shown) [Compound 56]: the change in vivo at 20 mg/kg in assay [1] (at 20 mg/kg, intraduodenal) was 112%.
For the molecule `CCCN1CC[C@@H](CC(O)Cc2cc(C(F)(F)F)nc3ccccc23)[C@@H](CC)C1` (stereo partly shown) [Compound 58, N-propyl-2'-trifluoromethyl-hydrocinchonicinol-2], the change in vivo at 10 mg/kg in assay [1] (at 10 mg/kg, intraduodenal) is 133%.
Take `CCCN1CC[C@@H](CC(O)Cc2cc(C(F)(F)F)nc3ccccc23)[C@@H](CC)C1` (stereo partly drawn) [Compound 59, 1-(2-trifluoromethyl-4-quinolyl)-3-[3(R)-ethyl-N-propyl-4(S)-piperidyl]-propanol-2]: the change in vivo at 4 mg/kg in assay [1] (at 4 mg/kg, intraduodenal) turned out to be 55%.
Turning to `CCCN1CC[C@@H](CC(O)Cc2cc(C(F)(F)F)nc3ccccc23)[C@@H](CC)C1` (stereo partly shown) [Compound 60, N-propyl-2'-trifluoromethyl-hydrocinchonicinol-2], the change in vivo at 8 mg/kg in assay [1] (intraduodenal) worked out at 137%.
Regarding `CCCCCN1CC[C@@H](CC(=O)Cc2cc(C(F)(F)F)nc3ccccc23)[C@@H](CC)C1` [Compound 64, 1-(2-Trifluoromethyl-4-quinolyl)-3-[3(R)-ethyl-N-pentyl-4(S)-piperidyl]-propanone-2.bifumarate], the change in vivo at 100 mg/kg in assay [2] (1 h) is -5%; in assay [2] (2 h), -23%; in assay [2] (4 h), -17%; in assay [2] (6 h) it was -13%; in assay [2] (24 h), -8%.
With `CC[C@H]1CN(CC(C)(C)O)CC[C@H]1CCC(=NOC)c1cc(C)nc2ccccc12` [Compound 66, N-(2-Hydroxy-2-methylpropyl)-2'-methyl-hydrocinchonicine-O-methyl oxime ether.bioxalate], in assay [1] (intraduodenal), the change in vivo at 16 mg/kg came to 43%.
